This note sets out measurements from patent publication US10537558B2 (Bantam Pharmaceutical, LLC, priority 2015, dated 2020).

What is called EC50 is the concentration at which the effect is half-maximal.

This assay relates to BJAB cells. As to the kind of experiment: BJAB cell proliferation (Cell Titer Glo). The format is cell-based. The conditions noted are these: Homo sapiens, read-out: EC50. The method, boiled down: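 BJAB cells exposed to serially diluted compounds (0.1% DMSO final) for about 72 h at 37 °C. Proliferation read by Cell Titer Glo luminescence as percent of untreated controls; EC50 from non-linear regression of dose-response data.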
(In general: In ATP-based viability assays light output follows the ATP content of the culture.)
Consider `CCN(CC)C1CCN(C(=O)c2c(-c3cc(C(F)(F)F)cc(C(F)(F)F)c3)c(C)nn2-c2nc(-c3ccc(Cl)c(Cl)c3)c(SC(C)C)s2)C1` (centres unmarked) [Compound 78, (4-(3,5-bis(trifluoromethyl)phenyl)-1-(4-(3,4-dichlorophenyl)-5-(isopropylthio)thiazol-2-yl)-3-methyl-1H-pyrazol-5-yl)(3-(diethylamino)pyrrolidin-1-yl)methanone], for which the half-maximal effective concentration (EC50) is above 40 µM.
Take `Cc1nn(-c2nc(-c3ccc(Cl)c(Cl)c3)c(SC(C)C)s2)c(C(=O)O)c1-c1cnccn1` [Compound 79, 1-(4-(3,4-dichlorophenyl)-5-(isopropylthio)thiazol-2-yl)-3-methyl-4-(pyrazin-2-yl)-1H-pyrazole-5-carboxylic Acid]: the concentration for a half-maximal effect (EC50) lay within 10 to 25 µM.
Then `Cc1cc(C#N)cc(-c2c(C)nn(-c3nc(-c4ccc(Cl)c(Cl)c4)c(SC(C)C)s3)c2C(=O)O)c1` [Compound 80, 4-(3-cyano-5-methylphenyl)-1-(4-(3,4-dichlorophenyl)-5-(isopropylthio)thiazol-2-yl)-3-methyl-1H-pyrazole-5-carboxylic Acid], with 1 to 5 µM; and `Cc1nn(-c2nc(-c3ccc(Cl)c(Cl)c3)c(SC(C)C)s2)c(C(=O)Nc2nnn[nH]2)c1-c1cc(C(F)(F)F)cc(C(F)(F)F)c1` [Compound 81, 4-(3,5-bis(trifluoromethyl)phenyl)-1-(4-(3,4-dichlorophenyl)-5-(isopropylthio)thiazol-2-yl)-3-methyl-N-(1H-tetrazol-5-yl)-1H-pyrazole-5-carboxamide], with above 40 µM; and `Cc1nnc(-c2c(C)nn(-c3nc(-c4ccc(Cl)c(Cl)c4)c(SC(C)C)s3)c2C(=O)O)s1` [Compound 82, 1-(4-(3,4-dichlorophenyl)-5-(isopropylthio)thiazol-2-yl)-3-methyl-4-(5-methyl-1,3,4-thiadiazol-2-yl)-1H-pyrazole-5-carboxylic acid], with above 40 µM.
Next, `COc1cc(C#N)cc(-c2c(C)nn(-c3nc(-c4ccc(Cl)c(Cl)c4)c(SC(C)C)s3)c2C(=O)O)c1` [Compound 83, 4-(3-cyano-5-methoxyphenyl)-1-(4-(3,4-dichlorophenyl)-5-(isopropylthio)thiazol-2-yl)-3-methyl-1H-pyrazole-5-carboxylic acid]: 5 to 10 µM; `Cc1nn(-c2nc(-c3ccc(Cl)c(Cl)c3)c(SC(C)C)s2)c(C(=O)O)c1-c1cc(C#N)cc(C(F)(F)F)c1` [Compound 84, 4-(3-cyano-5-(trifluoromethyl)phenyl)-1-(4-(3,4-dichlorophenyl)-5-(isopropylthio)thiazol-2-yl)-3-methyl-1H-pyrazole-5-carboxylic Acid]: 1 to 5 µM.
Next, `COCc1cccc(-c2c(C)nn(-c3nc(-c4ccc(Cl)c(Cl)c4)c(SC(C)C)s3)c2C(=O)O)c1` [Compound 85, 1-(4-(3,4-dichlorophenyl)-5-(isopropylthio)thiazol-2-yl)-4-(3-(methoxymethyl)phenyl)-3-methyl-1H-pyrazole-5-carboxylic acid]: 5 to 10 µM; `Cc1nn(-c2nc(-c3ccc(Cl)c(Cl)c3)c(SC(C)C)s2)c(C(=O)O)c1-c1c(Cc2ccccc2)noc1C` [Compound 86, 4-(3-benzyl-5-methylisoxazol-4-yl)-1-(4-(3,4-dichlorophenyl)-5-(isopropylthio)thiazol-2-yl)-3-methyl-1H-pyrazole-5-carboxylic Acid]: 1 to 5 µM; `Cc1nn(-c2nc(-c3ccc(Cl)c(Cl)c3)c(SC(C)C)s2)c(C(=O)O)c1-c1cccc(CN(C)C)c1` [Compound 87, 1-(4-(3,4-dichlorophenyl)-5-(isopropylthio)thiazol-2-yl)-4-(3-((dimethylamino)methyl)phenyl)-3-methyl-1H-pyrazole-5-carboxylic acid]: above 25 µM.
For the compound `Cc1nn(-c2nc(-c3ccc(Cl)c(Cl)c3)c(SC(C)C)s2)c(CO)c1-c1ccccc1` [Compound 88, (1-(4-(3,4-dichlorophenyl)-5-(isopropylthio)thiazol-2-yl)-3-methyl-4-phenyl-1H-pyrazol-5-yl)MeOH], the EC50 was above 25 µM.
Then `Cc1nn(-c2nc(-c3ccc(Cl)c(Cl)c3)c(SC(C)C)s2)c(C(=O)O)c1-c1ccc2c(c1)OCO2` [Compound 89, 4-(benzo[d][1,3]dioxol-5-yl)-1-(4-(3,4-dichlorophenyl)-5-(isopropylthio)thiazol-2-yl)-3-methyl-1H-pyrazole-5-carboxylic Acid], with 5 to 10 µM; and `COc1ccnc(-c2c(C)nn(-c3nc(-c4ccc(Cl)c(Cl)c4)c(SC(C)C)s3)c2C(=O)O)n1` [Compound 90, 1-(4-(3,4-dichlorophenyl)-5-(isopropylthio)thiazol-2-yl)-4-(4-methoxypyrimidin-2-yl)-3-methyl-1H-pyrazole-5-carboxylic acid], with above 25 µM.
Then `Cc1nn(-c2nc(-c3ccc(Cl)c(Cl)c3)c(SC(C)C)s2)c(C(=O)O)c1-c1cnsc1` [Compound 91, 1-(4-(3,4-dichlorophenyl)-5-(isopropylthio)thiazol-2-yl)-4-(isothiazol-4-yl)-3-methyl-1H-pyrazole-5-carboxylic acid], with 5 to 10 µM; and `Cc1cc(-c2c(C)nn(-c3nc(-c4ccc(Cl)c(Cl)c4)c(SC(C)C)s3)c2C(=O)O)sn1` [Compound 92, 1-(4-(3,4-dichlorophenyl)-5-(isopropylthio)thiazol-2-yl)-3-methyl-4-(3-methylisothiazol-5-yl)-1H-pyrazole-5-carboxylic Acid], with 1 to 5 µM.
Next, `Cc1nn(-c2nc(-c3ccc(Cl)c(Cl)c3)c(SC(C)C)s2)c(C(=O)O)c1-c1ccn(C)c(=O)c1` [Compound 93, 1-(4-(3,4-dichlorophenyl)-5-(isopropylthio)thiazol-2-yl)-3-methyl-4-(1-methyl-2-oxo-1,2-dihydropyridin-4-yl)-1H-pyrazole-5-carboxylic acid]: above 25 µM; `Cc1nn(-c2nc(-c3ccc(Cl)c(Cl)c3)c(SC(C)C)s2)c(C(=O)O)c1-c1cc(C)c(=O)n(C)c1` [Compound 94, 1-(4-(3,4-dichlorophenyl)-5-(isopropylthio)thiazol-2-yl)-4-(1,5-dimethyl-6-oxo-1,6-dihydropyridin-3-yl)-3-methyl-1H-pyrazole-5-carboxylic Acid]: above 25 µM.
`Cc1cc(F)cc(-c2c(C)nn(-c3nc(-c4ccc(Cl)c(Cl)c4)c(SC(C)C)s3)c2C(=O)O)c1` [Compound 95, 1-(4-(3,4-dichlorophenyl)-5-(isopropylthio)thiazol-2-yl)-4-(3-fluoro-5-methylphenyl)-3-methyl-1H-pyrazole-5-carboxylic Acid]: the half-maximal effective concentration (EC50) is 1 to 5 µM.
For `Cc1cc(O)cc(-c2c(C)nn(-c3nc(-c4ccc(Cl)c(Cl)c4)c(SC(C)C)s3)c2C(=O)O)c1` [Compound 96, 1-(4-(3,4-dichlorophenyl)-5-(isopropylthio)thiazol-2-yl)-4-(3-hydroxy-5-methylphenyl)-3-methyl-1H-pyrazole-5-carboxylic acid], the EC50 was above 25 µM.
Next, `Cc1cc(OC(C)C)cc(-c2c(C)nn(-c3nc(-c4ccc(Cl)c(Cl)c4)c(SC(C)C)s3)c2C(=O)O)c1` [Compound 97, 1-(4-(3,4-dichlorophenyl)-5-(isopropylthio)thiazol-2-yl)-4-(3-isopropoxy-5-methylphenyl)-3-methyl-1H-pyrazole-5-carboxylic Acid]: 1 to 5 µM.
